Data from PubChem BioAssay AID1963966 (Molecular Pharmacology Branch, DTP, NCI, 2024).

Test system: 935938-334-R-J1-PDC spheroids with HUVEC/MSC, viability
Assay: Anticancer human tumor 935938-334-R-J1-PDC patient-derived small intestine adenocarcinoma cell line growth inhibition [PI3K]
Conditions: for IC50: curve of first compound; for viability, T/C: stronger effect = lower value; active = viability on the fitted dose curve at most 10% of control; inactive = the rest
How it was run: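 Targeted small molecules plus PI3K inhibitors, half-log dose series from Cmax (default top 10 microM), were applied to heterotypic spheroids of cancer cells with HUVEC and MSCs. Viability indicated growth inhibition.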

[1] = second compound 0.0316 µM, first compound 0.000316 µM
[2] = second compound 0.0316 µM, first compound 0.001 µM
[3] = second compound 0.0316 µM, first compound 0.00316 µM
[4] = second compound 0.0316 µM, first compound 0.01 µM
[5] = second compound 0.0316 µM, first compound 0.0316 µM
[6] = second compound 0.0316 µM, first compound 0.1 µM
[7] = second compound 0.1 µM, first compound 0.000316 µM
[8] = second compound 0.1 µM, first compound 0.001 µM
[9] = second compound 0.1 µM, first compound 0.00316 µM
[10] = second compound 0.1 µM, first compound 0.01 µM
[11] = second compound 0.1 µM, first compound 0.0316 µM
[12] = second compound 0.1 µM, first compound 0.1 µM
[13] = second compound 0.316 µM, first compound 0.000316 µM
[14] = second compound 0.316 µM, first compound 0.001 µM
[15] = second compound 0.316 µM, first compound 0.00316 µM
[16] = second compound 0.316 µM, first compound 0.01 µM
[17] = second compound 0.316 µM, first compound 0.0316 µM
[18] = second compound 0.316 µM, first compound 0.1 µM
[19] = second compound 1 µM, first compound 0.000316 µM
[20] = second compound 1 µM, first compound 0.001 µM
[21] = second compound 1 µM, first compound 0.00316 µM
[22] = second compound 1 µM, first compound 0.01 µM
[23] = second compound 1 µM, first compound 0.0316 µM
[24] = second compound 1 µM, first compound 0.1 µM
[25] = second compound 3.16 µM, first compound 0.000316 µM
[26] = second compound 3.16 µM, first compound 0.001 µM
[27] = second compound 3.16 µM, first compound 0.00316 µM
[28] = second compound 3.16 µM, first compound 0.01 µM
[29] = second compound 3.16 µM, first compound 0.0316 µM
[30] = second compound 3.16 µM, first compound 0.1 µM
[31] = second compound 10 µM, first compound 0.000316 µM
[32] = second compound 10 µM, first compound 0.001 µM
[33] = second compound 10 µM, first compound 0.00316 µM
[34] = second compound 10 µM, first compound 0.01 µM
[35] = second compound 10 µM, first compound 0.0316 µM
[36] = second compound 10 µM, first compound 0.1 µM
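Note: compound exposure lasted seven days before viability was read.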
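Throughout, for viability, T/C: percent of vehicle DMSO treated spheroid viability so 100% = untreated.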

CC(=O)c1c(C)c2cnc(Nc3ccc(N4CCNCC4)cn3)nc2n(C2CCCC2)c1=O + Cc1nc(NC(=O)N2CCCC2C(N)=O)sc1-c1ccnc(C(C)(C)C(F)(F)F)c1
58.2 nM: IC50 (second compound 0.316 µM)
2.55 nM: IC50 (second compound 3.16 µM)
> 100 nM: IC50 (second compound 0.0316 µM) | IC50 (second compound 0.1 µM)
27.8 nM: IC50 (second compound 1 µM)
< 0.316 nM: IC50 (second compound 10 µM)
inactive: viability, T/C [1] 104% | viability, T/C [2] 95.7% | viability, T/C [3] 112% | viability, T/C [4] 102% | viability, T/C [5] 74.8% | viability, T/C [6] 55.9% | viability, T/C [7] 94.4% | viability, T/C [8] 96.5% | viability, T/C [9] 89.4% | viability, T/C [10] 78.5% | viability, T/C [11] 85.7% | viability, T/C [12] 52.8% | viability, T/C [13] 87.8% | viability, T/C [14] 75% | viability, T/C [15] 63.4% | viability, T/C [16] 80.7% | viability, T/C [17] 51.6% | viability, T/C [18] 44.1% | viability, T/C [19] 77% | viability, T/C [20] 49.8% | viability, T/C [21] 63.3% | viability, T/C [22] 76.4% | viability, T/C [23] 47.9% | viability, T/C [24] 31.1% | viability, T/C [25] 67.2% | viability, T/C [26] 61.8% | viability, T/C [27] 43.7% | viability, T/C [28] 42% | viability, T/C [29] 33.1% | viability, T/C [30] 29.9% | viability, T/C [31] 39.5% | viability, T/C [32] 40% | viability, T/C [33] 35.3% | viability, T/C [34] 37.2% | viability, T/C [35] 33.3% | viability, T/C [36] 26.5%

CC(C)n1nc(-c2ccc3oc(N)nc3c2)c2c(N)ncnc21 + Cc1nc(NC(=O)N2CCCC2C(N)=O)sc1-c1ccnc(C(C)(C)C(F)(F)F)c1
7.19 nM: IC50 (second compound 1 µM)
17 nM: IC50 (second compound 0.316 µM)
3.77 nM: IC50 (second compound 3.16 µM)
> 100 nM: IC50 (second compound 0.0316 µM) | IC50 (second compound 0.1 µM)
inactive: viability, T/C [1] 91.5% | viability, T/C [2] 91% | viability, T/C [3] 81.3% | viability, T/C [4] 93.6% | viability, T/C [5] 64.9% | viability, T/C [6] 51.6% | viability, T/C [7] 89% | viability, T/C [8] 82.1% | viability, T/C [9] 75.9% | viability, T/C [10] 92% | viability, T/C [11] 68.7% | viability, T/C [12] 54.5% | viability, T/C [13] 83.4% | viability, T/C [14] 72.2% | viability, T/C [15] 92.8% | viability, T/C [16] 54.1% | viability, T/C [17] 54.9% | viability, T/C [18] 35.5% | viability, T/C [19] 66.5% | viability, T/C [20] 74.3% | viability, T/C [21] 66.8% | viability, T/C [22] 42.5% | viability, T/C [23] 37.6% | viability, T/C [24] 27.1% | viability, T/C [25] 51% | viability, T/C [26] 59.8% | viability, T/C [27] 47.8% | viability, T/C [28] 43% | viability, T/C [29] 27.3% | viability, T/C [30] 28.9% | viability, T/C [31] 35.5% | viability, T/C [32] 37.7% | viability, T/C [33] 61.5% | viability, T/C [34] 35% | viability, T/C [35] 37.3% | viability, T/C [36] 30.1%
< 0.316 nM: IC50 (second compound 10 µM)
